The values that follow come from US12480948B2, “Ratiometric fluorescent probe for detecting aminopeptidase N, and preparation method and use thereof” (Jilin University, priority 2022, dated 2025).

The target of one data set is T1, APN in liver (Mus musculus, UniProt P97449).
T1 construct: from tissue; host or cells: liver of nude mice, in vivo
T1 sequence (P97449 1-966): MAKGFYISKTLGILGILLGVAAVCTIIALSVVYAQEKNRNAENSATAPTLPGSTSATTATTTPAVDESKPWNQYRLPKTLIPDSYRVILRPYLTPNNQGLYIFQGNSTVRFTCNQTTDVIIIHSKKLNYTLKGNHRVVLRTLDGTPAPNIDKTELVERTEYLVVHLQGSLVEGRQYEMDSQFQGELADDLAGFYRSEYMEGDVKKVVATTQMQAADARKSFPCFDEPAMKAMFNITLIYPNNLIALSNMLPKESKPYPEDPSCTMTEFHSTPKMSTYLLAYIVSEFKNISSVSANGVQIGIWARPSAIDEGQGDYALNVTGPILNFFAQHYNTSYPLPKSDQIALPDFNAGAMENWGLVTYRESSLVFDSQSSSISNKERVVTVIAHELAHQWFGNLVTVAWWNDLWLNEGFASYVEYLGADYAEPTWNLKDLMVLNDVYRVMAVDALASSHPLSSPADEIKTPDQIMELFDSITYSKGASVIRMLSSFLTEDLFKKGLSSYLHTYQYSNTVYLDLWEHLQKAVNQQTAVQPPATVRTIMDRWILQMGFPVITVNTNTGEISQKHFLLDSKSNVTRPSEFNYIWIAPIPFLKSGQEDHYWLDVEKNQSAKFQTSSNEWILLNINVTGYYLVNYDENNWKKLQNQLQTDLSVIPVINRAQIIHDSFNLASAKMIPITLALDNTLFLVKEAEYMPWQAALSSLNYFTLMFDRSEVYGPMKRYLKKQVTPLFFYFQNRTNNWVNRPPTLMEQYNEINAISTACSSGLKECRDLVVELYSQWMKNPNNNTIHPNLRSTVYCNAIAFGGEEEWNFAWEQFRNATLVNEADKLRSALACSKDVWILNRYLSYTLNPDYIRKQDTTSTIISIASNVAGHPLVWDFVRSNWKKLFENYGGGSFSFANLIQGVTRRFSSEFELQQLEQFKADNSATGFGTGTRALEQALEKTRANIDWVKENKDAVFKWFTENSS
Description: In vivo imaging of APN activity in nude mice with DILI. Also on record: species or system nude mouse. The following applies: 300 mg/kg APAP intraperitoneal, 12 h after NB-APN tail vein injection. As for the experimental part: The NB-APN was used to image the activity of APN in nude mice with DILI. Nude mice were intraperitoneally pre-injected with pH 7.4 PBS (control), and then injected with NB-APN through the tail vein. The background fluorescence signal of the nude mice was extremely low 6 h and 12 h after the NB-APN injection. […] In addition, the nude mouse with DILI was sacrificed, and the main organs (heart, liver, spleen, lung, and kidney) and the tumor were collected for imaging after 3 h of NB-APN pretreatment.

The test system of another data set is APN in HepG2 cells. Put plainly: APAP-induced hepatotoxicity and hepatoprotective drugs in HepG2 cells, imaged with NB-APN. The format is cell-based, human. The following applies: for effect on the red fluorescence of HepG2 cells: drug 300 μM + APAP 1,000 μM + NB-APN 5 μM. From the text:
It has been reported that the excessive use of antipyretic analgesic acetaminophen (APAP) can cause drug-induced liver injury, during which process an APN concentration increases. The present disclosure also evaluates the performance of NB-APN in monitoring APN changes during APAP-induced acute hepatotoxicity and a drug treatment thereof. The NB-APN was used to evaluate the production of APN in APAP-stimulated cells. […] Furthermore, the NB-APN was used to study a relationship between the hepatotoxicity therapy and the APN level in living cells. Four drugs (NAC, GSH, TIO, and Glu) were investigated as anti-DILI hepatoprotective agents. […] This may be because the intake of GSH helps to improve the detoxification ability of the liver and reduce the damage of APAP to the liver. In addition, the western blot result was also consistent with the result of fluorescent imaging.

The target in the next data set is APN (Homo sapiens, UniProt P15144). Description: Inhibitor experiments with bestatin in the NB-APN + APN system. The format is biochemical. The note with it: bestatin 1 μM and 10 μM, APN 25 ng/mL, NB-APN 10 μM, 37° C., pH 7.4, 20 min. As for the experimental part:
Inhibitor experiments: a: NB-APN (10 μM); b: system (a)+APN (25 ng/mL); c: system (b)+bestatin (1 μM); and d: system (b)+bestatin (10 μM).
The influence of different concentrations of bestatin on the fluorescence ratio I675/I610 of 10 μM NB-APN (green) or 10 μM NB (red) was investigated, with λex=560 nm, 37° C., pH 7.4, 20 min.

For data set [1], the target named is T2, APN in normal hepatocytes LO2 (Homo sapiens, UniProt P15144).
T2 construct: endogenous in cells; host or cells: LO2
T2 sequence (P15144 whole entry): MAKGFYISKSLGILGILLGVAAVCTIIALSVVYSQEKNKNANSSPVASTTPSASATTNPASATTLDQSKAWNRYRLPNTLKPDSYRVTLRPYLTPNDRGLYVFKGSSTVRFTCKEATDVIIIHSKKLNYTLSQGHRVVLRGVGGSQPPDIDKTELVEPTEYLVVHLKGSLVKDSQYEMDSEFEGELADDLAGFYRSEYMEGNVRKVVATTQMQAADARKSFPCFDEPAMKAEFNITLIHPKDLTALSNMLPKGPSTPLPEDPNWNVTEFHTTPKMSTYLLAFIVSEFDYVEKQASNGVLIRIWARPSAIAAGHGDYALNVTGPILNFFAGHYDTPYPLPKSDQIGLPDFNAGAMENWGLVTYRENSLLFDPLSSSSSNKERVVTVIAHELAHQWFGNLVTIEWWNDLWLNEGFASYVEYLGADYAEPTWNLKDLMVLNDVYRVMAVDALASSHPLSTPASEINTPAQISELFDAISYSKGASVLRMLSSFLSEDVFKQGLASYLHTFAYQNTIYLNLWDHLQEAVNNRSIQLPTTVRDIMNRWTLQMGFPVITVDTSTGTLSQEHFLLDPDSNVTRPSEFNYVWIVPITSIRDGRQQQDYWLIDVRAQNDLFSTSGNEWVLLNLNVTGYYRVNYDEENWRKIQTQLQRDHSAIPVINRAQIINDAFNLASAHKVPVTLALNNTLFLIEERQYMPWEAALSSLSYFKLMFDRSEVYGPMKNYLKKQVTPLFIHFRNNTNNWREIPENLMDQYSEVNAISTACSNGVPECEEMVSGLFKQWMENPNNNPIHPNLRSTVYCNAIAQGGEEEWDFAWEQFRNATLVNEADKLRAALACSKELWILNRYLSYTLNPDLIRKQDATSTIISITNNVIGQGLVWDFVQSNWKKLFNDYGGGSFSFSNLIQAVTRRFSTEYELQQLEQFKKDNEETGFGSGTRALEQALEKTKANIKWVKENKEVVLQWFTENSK
Description: Confocal ratiometric cell imaging of APN, LO2. It counts as cell-based. The note with it: LO2, bestatin 100 μM pre-treatment 1 h, NB-APN 5 μM 30 min. The procedure: (§1) The probe NB-APN was used for the imaging analysis of APN in liver cancer cells HepG2 and normal hepatocytes LO2. A confocal fluorescence microscope was adopted, and an excitation light source with a wavelength of 559 nm was adopted. The light emitted from a yellow channel (580 nm to 620 nm) and a red channel (660 nm to 700 nm) was collected. The HepG2 cells and LO2 cells were each pre-treated with bestatin (100 μM) for 1 h and then incubated with NB-APN (5 μM) for 30 min.

The target in data set [2] is T3, APN in liver cancer cells HepG2 (Homo sapiens, UniProt P15144).
T3 construct: after acting on HepG2 cells, indicating the existence of intrinsic APN; endogenous in cells; host or cells: HepG2
T3 sequence (P15144 whole entry): as above
Put plainly: Confocal ratiometric cell imaging of APN, HepG2. The format is cell-based. The following applies: HepG2, bestatin 100 μM pre-treatment 1 h, NB-APN 5 μM 30 min. The procedure:
as §1

In data set [3] the target is T4, APN in transplanted tumor (Homo sapiens, UniProt P15144).
T4 construct: from tissue; host or cells: HepG2 xenograft tumour in nude mouse
T4 sequence (P15144 whole entry): as above
Description: In vivo fluorescent imaging of HepG2 tumor-transplanted nude mice. More on the design: species or system nude mouse. The following applies: 50 μL bestatin (100 μM) pre-injected 1 h before NB-APN. The procedure:
Transplanted tumors from two nude mice were respectively pre-injected with 50 μL of PBS (control) and bestatin (100 μM), and 1 h later, 50 μL of NB-APN (50 μM) was intratumorally injected. Imaging was conducted at different time points (0 h, 0.25 h, 0.5 h, 1.0 h, 2.0 h, and 4.0 h) after the NB-APN injection.
The intratumoral injection was adopted to study tumor imaging in a nude mouse liver cancer model under the red luminescence channel, and results are shown in FIG. 12. The fluorescence background of the nude mouse before the probe injection was very low. […] It can be considered accordingly that the fluorescence signal in a tumor is caused by the enzymatic activity of APN and thus the probe NB-APN can detect APN at a living organism level.

Sequence of APN (P15144 whole entry, species assumed): as the sequence (P15144 whole entry) above

Take `CC(=O)Nc1ccc(O)cc1` [APAP, acetaminophen]: on APN in liver, the “liver fluorescence (APN expression) in nude mice” value is given as “strong fluorescence appeared in the liver”. Further, the “change of R value (APN level) with APAP concentration” value in the data set on APN in HepG2 cells (HepG2, APAP 500 μM and 1,000 μM, NB-APN 5 μM) was “gradual increase in the R value”.
On to `N[C@@H](CCC(=O)N[C@@H](CS)C(=O)NCC(=O)O)C(=O)O` [GSH, glutathione], for which the “anti-hepatotoxic effect with APN as hepatotoxicity index, compared” value with APN in HepG2 cells (drug 300 μM + APAP 1,000 μM) was “better than that of NAC and Glu, but worse than that of TIO”. The “effect on the red fluorescence of HepG2 cells” value (“effect on the red fluorescence” for short) in the data set on APN in HepG2 cells is “obvious inhibitory effect”.
`CC(=O)N[C@@H](CS)C(=O)O` [NAC]: the “effect on the red fluorescence” value in the data set with APN in HepG2 cells is reported as “obvious inhibitory effect”.
In the case of `CC(S)C(=O)NCC(=O)O` (stereo not shown) [TIO], the “effect on the red fluorescence” value in the data set on APN in HepG2 cells is reported as “obvious inhibitory effect”.
As to `CC(C)C[C@H](NC(=O)[C@@H](O)[C@H](N)Cc1ccccc1)C(=O)O` [bestatin], the “effect on the fluorescence ratio signal I675/I610 of the NB-APN + APN system” value at APN is recorded as “significant inhibitory effect”. Also, the “effect on intracellular fluorescence ratio R” value in data set [1] and in data set [2] was “significantly reduced” each time. Besides, the “fluorescence signal at the tumor site compared with the group without inhibitor” value in data set [3] is recorded as “significantly weaker”.
